This is an account of results in ChEMBL document CHEMBL3244079, “Synthesis and antiarrhythmic activity of 2-dialkylaminoalkyl-9-phenyl-1H-indeno[2,1-c]pyridine derivatives” (J Med Chem, 1978).

Activity calls are given as the source filed them. The calls are words filed in the database; no cut-off is given here.

The subject of data set [1] is Canis familiaris. Description: Antiarrhythmic activity in iv dosed mongrel dog assessed as reduction in ouabain-induced ventricular arrhythmia by electrocardiographic analysis. In kind it is functional. The conditions noted are these: Canis lupus familiaris, Heart; for minimal effective dose: read-out: MED.
For data set [2], the system named is Canis familiaris. Put plainly: Antiarrhythmic activity in iv dosed mongrel dog assessed as reduction in ouabain-induced ventricular arrhythmia measured as duration of action at MED by electrocardiographic analysis. In kind it is functional, Canis lupus familiaris, Heart.
Data set [3] is filed under the species Canis familiaris. Put plainly: Antiarrhythmic activity in mongrel dog Harris two-stage coronary ligation model assessed as reduction in ectopic beats measured as duration of action at MED by electrocardiographic analysis. The class given is functional, Canis lupus familiaris, Heart.
Data set [4] is filed under the species Canis familiaris. Description: Antiarrhythmic activity in mongrel dog Harris two-stage coronary ligation model assessed as reduction in ectopic beats by electrocardiographic analysis. The following applies: Canis lupus familiaris, Heart; for minimal effective dose: read-out: MED. The class given is functional.
The subject of a further data set is Heart. Put plainly: Antiarrhythmic activity in rabbit heart assessed as reduction in aconitine-induced ventricular arrhythmia at 40 mg/l after 30 mins by electrocardiographic analysis. In kind it is functional, tissue-based. The following applies: Oryctolagus cuniculus.
The species entered for data set [5] is Canis familiaris. Put plainly: Toxicity in mongrel dog Harris two-stage coronary ligation model. In kind it is organism-based, Canis lupus familiaris. The conditions noted are these: in vivo.

With `CCN(CC)CCCN1CCC(O)(c2ccccc2)C(C(=O)c2ccccc2)C1` (stereo not drawn), the minimal effective dose in the data set on Canis familiaris [1] turned out to be 12.5 mg/kg; in the data set filed under Canis familiaris [4], 7.5 mg/kg. Moreover, the figures for the Time in the data set with Canis familiaris [2] and in the data set filed under Canis familiaris [3] were 32 min and 16 min, respectively.
For `O=C(c1ccccc1)C1CN(CCCN2CCCCC2)CCC1(O)c1ccccc1` (stereo not drawn), in the data set on Canis familiaris [1], the minimal effective dose was found to be 10 mg/kg. Also, in the data set on Heart, the result was Active. In the data set on Canis familiaris [2], the Time was 15 min. Further, in the data set filed under Canis familiaris [4], the outcome was inactive.
On the same counts, the results for `Br.CN(C)CCCN1CC=C2C(=C(c3ccccc3)c3ccccc32)C1.O` are 15 mg/kg, “Active”, 40 min and “inactive”.
As to `Br.CCN(CC)CCCN1CC=C2C(=C(c3ccccc3)c3ccccc32)C1.O`, the values for the minimal effective dose in the data set on Canis familiaris [1] and in the data set filed under Canis familiaris [4] were 20 mg/kg and 15 mg/kg, respectively. Also, the outcome with Heart was Active. For the same compound, the Time with Canis familiaris [2] came out at 35 min; in the data set filed under Canis familiaris [3] it was 10 min.
Take `Br.C1=C2C(=C(c3ccccc3)c3ccccc32)CN(CCCN2CCCCC2)C1.O`: the values for the minimal effective dose in the data set with Canis familiaris [1] and in the data set listed under Canis familiaris [4] were 10 mg/kg and 7.5 mg/kg, respectively. In the data set on Heart, the result was Active. The Time in the data set with Canis familiaris [2] came to 35 min; in the data set listed under Canis familiaris [3], 12 min.
For the compound `Br.C1=C2C(=C(c3ccccc3)c3ccccc32)CN(Cc2ccccc2)C1`, in the data set with Canis familiaris [1], the minimal effective dose is 15 mg/kg. In addition, the outcome in the data set on Heart was Active. In the data set with Canis familiaris [2], the Time is 17 min. The outcome in the data set filed under Canis familiaris [4] was inactive.
With `CN(C)CCCN1CCC(O)(c2ccccc2)C(C(=O)c2ccccc2)C1` (stereo not drawn), the result in the data set with Canis familiaris [1] was inactive. In the data set with Heart, the outcome was Active.
For `CN(C)CCN1CCC(O)(c2ccccc2)C(C(=O)c2ccccc2)C1` (stereo not drawn), in that order: “inactive” and “Active”.
For `CN(C)CCCN1CC[C@H]2c3ccccc3[C@@H](c3ccccc3)[C@H]2C1.Cl.O` (relative stereo), the minimal effective dose with Canis familiaris [1] and in the data set listed under Canis familiaris [4] was 10 mg/kg each time. Further, the result with Heart was Active. In addition, the Time with Canis familiaris [2] was determined as 15 min; in the data set filed under Canis familiaris [3], 17.5 min.
For the compound `CCN(CC)CCCN1CC[C@H]2c3ccccc3[C@@H](c3ccccc3)[C@H]2C1.Cl.O` (relative stereo), the minimal effective dose in the data set on Canis familiaris [1] worked out at 20 mg/kg; in the data set filed under Canis familiaris [4], 12.5 mg/kg. In the data set with Heart, the result was Active. Further, the Time with Canis familiaris [2] came out at 15 min; in the data set listed under Canis familiaris [3], 10 min.
Regarding `Cl.O.c1ccc([C@@H]2c3ccccc3[C@@H]3CCN(CCCN4CCCCC4)C[C@H]23)cc1` (relative stereo), the minimal effective dose with Canis familiaris [1] stood at 15 mg/kg. Besides, the Time in the data set with Canis familiaris [2] came out at 15 min. In addition, in the data set listed under Canis familiaris [4], the outcome was inactive.
Consider `Br.CCN(CC)CCN1CC[C@H]2c3ccccc3[C@@H](c3ccccc3)[C@H]2C1.O` (relative stereo), for which the minimal effective dose was 10 mg/kg in the data set on Canis familiaris [1] and 12.5 mg/kg in the data set filed under Canis familiaris [4]. In addition, the result in the data set on Heart was Active. The Time with Canis familiaris [2] was determined as 25 min; in the data set listed under Canis familiaris [3], 12.5 min.
Turning to `Br.CCN(CC)CCCN1CC[C@H]2c3ccccc3[C@H](c3ccccc3)[C@H]2C1.O` (relative stereo), the minimal effective dose in the data set on Canis familiaris [1] came out at 15 mg/kg. In the data set with Canis familiaris [2], the Time stood at 19 min.
Consider `Cl.O.c1ccc([C@H]2c3ccccc3[C@@H]3CCN(CCCN4CCCCC4)C[C@H]23)cc1` (relative stereo), for which the minimal effective dose with Canis familiaris [1] worked out at 10 mg/kg. For the same compound, the outcome in the data set on Heart was Active. For the same compound, the Time in the data set on Canis familiaris [2] is on record as 30 min. For the same compound, the Activity result in the data set listed under Canis familiaris [5] is “Toxic”.
Take `Br.CN(C)CCN1CC[C@H]2c3ccccc3[C@H](c3ccccc3)[C@H]2C1` (relative stereo): the minimal effective dose in the data set on Canis familiaris [1] was found to be 20 mg/kg. Besides, the outcome in the data set on Heart was Active. For the same compound, in the data set with Canis familiaris [2], the Time is 17 min. Moreover, the result in the data set listed under Canis familiaris [4] was inactive.
In the case of `Br.c1ccc([C@@H]2c3ccccc3[C@@H]3CCNC[C@H]23)cc1` (relative stereo), the minimal effective dose in the data set on Canis familiaris [1] stood at 17.5 mg/kg; in the data set listed under Canis familiaris [4], 15 mg/kg. Also, in the data set on Heart, the result was Active. Besides, the Time was found to be 15 min in the data set with Canis familiaris [2] and 12.5 min in the data set listed under Canis familiaris [3].
`CCN(CC)CCN1CC[C@H]2c3ccccc3[C@H](c3ccccc3)[C@H]2C1` (relative stereo): in the data set with Canis familiaris [1], the result was inactive. For the same compound, the outcome in the data set with Heart was Active.
Take `CN(C)CCCN1CC[C@H]2c3ccccc3[C@H](c3ccccc3)[C@H]2C1` (relative stereo): the result in the data set on Canis familiaris [1] was inactive. Moreover, in the data set on Heart, the outcome was Active.
For `c1ccc([C@H]2c3ccccc3[C@@H]3CCNC[C@H]23)cc1` (relative stereo), in that order: “inactive” and “Active”.
On to `CC(C)N(CCC(C(N)=O)(c1ccccc1)c1ccccn1)C(C)C.O=P(O)(O)O` (stereo not drawn) [DISOPYRAMIDE PHOSPHATE], for which the results for the minimal effective dose in the data set on Canis familiaris [1] and in the data set filed under Canis familiaris [4] were 6.6 mg/kg and 7 mg/kg, respectively. For the same compound, the Time is reported as over 30 min in the data set on Canis familiaris [2] and 23 min in the data set filed under Canis familiaris [3].
On to `C=C[C@H]1CN2CC[C@H]1C[C@@H]2[C@@H](O)c1ccnc2ccc(OC)cc12` [QUINIDINE], for which the values for the minimal effective dose with Canis familiaris [1] and in the data set listed under Canis familiaris [4] were 7.5 mg/kg and 12.8 mg/kg, respectively. The outcome in the data set with Heart was Active. The Time in the data set on Canis familiaris [2] is reported as over 30 min; in the data set listed under Canis familiaris [3], 23 min.
